Results on two molecules are retold here after patent publication US7235539B2, “6-Hydroxyequilenins as estrogenic agents” (Wyeth, priority 2002, dated 2007).

One assay concerns the target T1, human ERβ (Homo sapiens, UniProt Q92731).
T1 construct: M214–Q530 of human ERβ; Flag (C); made in house; host or cells: E. coli BL21(DE3), clarified lysate
Put plainly: Radioligand binding competition with [3H]-17β-estradiol, ERβ. The note with it: human ERβ ligand binding domain extract, read-out: ER-β IC50.

The target in the next assay is T2, human ERα (Homo sapiens, UniProt P03372).
T2 construct: amino acids M250–V595 of human ERα; His tag (N); made in house; host or cells: E. coli BL21(DE3), clarified lysate
T2 sequence (P03372 250-595): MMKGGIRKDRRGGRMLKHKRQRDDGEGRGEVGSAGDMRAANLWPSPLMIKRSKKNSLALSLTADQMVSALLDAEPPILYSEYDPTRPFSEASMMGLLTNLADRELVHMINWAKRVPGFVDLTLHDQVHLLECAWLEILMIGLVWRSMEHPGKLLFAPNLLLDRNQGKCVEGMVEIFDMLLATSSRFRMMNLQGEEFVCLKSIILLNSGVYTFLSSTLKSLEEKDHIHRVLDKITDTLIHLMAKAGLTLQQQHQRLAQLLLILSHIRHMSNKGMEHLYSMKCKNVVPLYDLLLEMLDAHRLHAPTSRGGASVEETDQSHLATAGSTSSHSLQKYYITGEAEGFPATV
Put plainly: Radioligand binding competition with [3H]-17β-estradiol, ERα. The following applies: human ERα ligand binding domain extract, read-out: ER-α IC50.

Assay [1] has as its system metallothionein-II mRNA in Saos-2 cells (via ERβ). Put plainly: Regulation of metallothionein II mRNA in Saos-2 cells. Type of assay: cell-based. From the text: Estrogens acting through ERβ, but not ERα can upregulate metallothionein II mRNA levels in Saos-2 cells as described by Harris [Endocrinology 142: 645–652 (2001)]. Results from this test procedure can be combined with results from the test procedure described below (ERE reporter test procedure) to generate a selectivity profile for compounds of this invention (see also WO 00/37681).

pIC50: −log10 of the molar value.

One may read the pIC50 as the IC50 on a negative log10 scale, so that one unit is a factor of ten.

T1 sequence (Q92731 214-530): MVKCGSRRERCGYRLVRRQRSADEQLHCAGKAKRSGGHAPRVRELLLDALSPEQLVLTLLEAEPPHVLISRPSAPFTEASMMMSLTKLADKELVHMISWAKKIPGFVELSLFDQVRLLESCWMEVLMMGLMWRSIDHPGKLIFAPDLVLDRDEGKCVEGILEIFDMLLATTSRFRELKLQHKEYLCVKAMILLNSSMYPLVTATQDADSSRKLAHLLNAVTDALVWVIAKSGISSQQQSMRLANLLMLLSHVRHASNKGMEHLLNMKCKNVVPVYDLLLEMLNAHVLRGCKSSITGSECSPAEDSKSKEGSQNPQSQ

Turning to `CC12CCc3c(cc(O)c4cc(O)ccc34)C1CCC2=O` (stereo not drawn) [Compound 1, 6-Hydroxyequilenin], the pIC50 was 6.91 at human ERβ and 5.66 at human ERα. The “Fold upregulation of metallothionein-II mRNA” value in assay [1] is on record as 11.

On to `CC12CCc3c(cc(O)c4cc(O)ccc34)C1CC[C@@H]2O` (stereo partly drawn) [Compound 5, 6-Hydroxy-3,17β-dihydroequilenin], for which the pIC50 on human ERβ was 7.80; on human ERα it was 6.62. In addition, the “Fold upregulation of metallothionein-II mRNA” value in assay [1] amounted to 11.
